Test results: patent US20260216139A1, “METHOD FOR TREATING NEUROLOGICAL DISEASES THROUGH GLIAL PRUNING REGULATION” (Fred Hutchinson Cancer Center, priority 2022, published 2026)

System: C. elegans
Assay: Effects of exposure to drugs on glial pruning: number of engulfed AFD neuron fragments in AMsh glia
Assay type: in vivo
Conditions: for suppression of defects, judged by the number of engulfed fragments in glia: pdr-1 single or pdr-1; for number of engulfed fragments of neuron within glia: pdr-1 mutant animals, upon drug exposure
Method: C. elegans were cultured as known to one of skill in the art. Bristol N2 strain was used as wild type. For all experiments, animals were raised at 20° C. for at least two generations without starvation, picked as L4 larvae onto fresh plate, and assayed 1 day later unless otherwise noted. For analysis of glial engulfment, animals were crossed to the strain dnals13, an integrated transgene bearing gcy-23: GFP recombineered fosmid outcrossed to Bristol N2 four times. To control environmental variations, worms were raised from egg-lay in a humidity and temperature-controlled environment until imaging. Worms were staged at the L4 stage using vulval anatomy. Day 1 adult animals were staged at the L4 stage and then grown for approximately 24 more hours (unless otherwise stated) in the controlled environment. Worms were imaged and glial engulfment was analyzed as described in the methods below.
Worms were immobilized with 40 mM sodium azide. Images were collected on a Deltavision® Elite RoHS wide-field deconvolution system with Ultimate Focus® (GE), a PlanApo 60×/1.42 NA or OLY 100×/1.40 NA oil-immersion objective, and a DV Elite CMOS Camera. Images of the AFD puncta in the region of the AMsh were taken at 100× using FITC with 100% transmission and 0.0405 ms exposure with a reference image taken at 5% POL in the middle of the sample. For worms expressing an extrachromosomal array tagged with mCherry, images were also taken using an A594 filter with 0.02 ms exposure to ensure expression of the array in the cell of interest. Images were then deconvolved and cropped to 1024×1024 in the area of interest. Next, images were processed using FIJI®. All images were converted to 8-bit and brightness and contrast were set with a minimum of 0 and a maximum of 50. Next, a rectangle is drawn around the region of the AMsh adjacent to, but not including, the AFD cell body and excluding any area along the AFD process. Next, the image is cropped to this region, and the tool “3D Objects Counter” is run with the following settings: threshold=35; size min.=5 max.=7225848; exclude objects side. This number of puncta is then verified by eye and recorded.
Data and statistics were either graphed and analyzed using Prism9 or by using R. Statistical analysis in R was conducted using the open-source data visualization package ggplot2. Data is represented in a boxplot with each point representing the number of puncta engulfed within the cell body of one AMsh glia in a single worm. Dots represent the biological replicate in which the individual worm was imaged unless otherwise specified to represent genotype.
4 mL standard C. elegans nematode growth medium (NGM) was aliquoted into 35 mm Petri dishes and stored at 4 degrees Celsius. Plates were warmed to room temperature and seeded with 100 μL of OP50 and dried overnight. Plates were then spotted with 100 μL of diluted SP600125 (in DMSO), Apocynin (in DMSO), or EHop-016 (in DMSO) for a final concentration of 0.5% or 1% DMSO (as labeled) and a final concentration of the treatment drug of 50 μM (unless otherwise specified). Spot treatment was allowed to dry before L1 staged C. elegans were transferred onto the plate. Worms were then imaged approximately 2 days later. Worms were staged at this time by vulval anatomy, body size, and the presence or absence of eggs. […] At this time, worms were imaged, and glial engulfment levels were analyzed.

| SMILES | suppression of defects, judged by the number of engulfed fragments in glia (pink-1 double mutant animals) | number of engulfed fragments of neuron within glia | other results |
| --- | --- | --- | --- |
| COc1cc(C(C)=O)ccc1O (racemic) [Apocynin, acetovanillone] | suppress |  |  |
| CCn1c2ccccc2c2cc(Nc3ccnc(NCCCN4CCOCC4)n3)ccc21 (racemic) [EHOP-016] | did not suppress |  | pruning (pdr-1, pink-1 double mutant animals, 10 μM): increased; pdr-1 defect (pruning) (pdr-1 lesion animals (FIG. 21C right), 10 μM): increased; pruning (wild type animals, 10 μM): increase |
| CC(C)C[C@@H](C=O)NC(=O)[C@H](CC(C)C)NC(=O)[C@H](CC(C)C)NC(=O)OCc1ccccc1 (racemic) [MG-132] |  | reduction |  |
| O=[N+]([O-])c1ccc(O)c([N+](=O)[O-])c1 [DNP] |  | no change |  |
| CO[C@H]1C[C@@H]2CC[C@@H](C)[C@@](O)(O2)C(=O)C(=O)N2CCCC[C@H]2C(=O)O[C@H]([C@H](C)C[C@@H]2CC[C@@H](O)[C@H](OC)C2)CC(=O)[C@H](C)/C=C(\C)[C@@H](O)[C@@H](OC)C(=O)[C@H](C)C[C@H](C)/C=C/C=C/C=C/1C [rapamycin] |  | no change |  |
